{"source": "patent US10178875B2", "about": "“Methods of modifying or imparting taste using organic compounds” (Givaudan, S.A., priority 2013, dated 2019)", "type_in_all_cases": "in vivo", "key": {"panel of trained tasters": {"tested_on": "panel of trained tasters", "experiment": "Taste evaluation in water", "procedure": "A one percent cut of each compound of Examples 1-13 was prepared first. The hydrochloride salts were cut directly into water, while the free base examples were cut into ethanol. Next, 100 ml of a 1 ppm, 10 ppm and 20 ppm solution were prepared. The 1 ppm standards were prepared by addition of 0.0126 ml (cut in ethanol) or 0.01 ml (cut in water) to an amber bottle followed by dilution to 100 g total sample weight using water. The 10 and 20 ppm solutions were prepared similarly, but using 0.126 ml ethanol/0.1 ml water or 0.252 ml ethanol/0.2 ml water of the 1% cuts respectively. Next, the samples were evaluated by a panel of trained tasters."}, "bench-top tasting panel [1]": {"tested_on": "bench-top tasting panel", "experiment": "Umami evaluation in noodle seasoning broth", "conditions": "Example 1 0.0001% by weight; for umami strength ranking: MSG 0.1%, 11 panelists", "procedure": "(§1) Umami evaluations were done in dry noodle seasoning, chicken broth, retorted chicken broth, cheese sauce and salted potato chip applications. Each application was prepared using MSG, the experimental umami tastant and a blank which contained neither MSG nor the experimental umami tastant. Next, using a bench-top tasting panel (consisting of 7 to 14 panelists), panelists were asked to record the sensory attribute differences between the control (blank), the MSG application and the application containing the experimental umami tastant. These sensory attributes include umami, saltiness, bitterness, off-notes, mouth feel attribute, lingering attribute and flavor profile differences. [table] Turmeric was plated on salt and palm fat and blended well. Next, the remaining ingredients were added and mixed until well blended. A concentration of 1.5% of the resulting mixture in hot water generated the noodle seasoning broth. The following three samples were tasted and compared. [table]"}, "bench-top tasting panel [2]": {"tested_on": "bench-top tasting panel", "experiment": "Umami evaluation in chicken broth", "conditions": "Example 1 0.0002% by weight; for umami strength ranking: MSG 0.1%, 11 panelists", "procedure": "as §1, with “[table]” left out, “chicken” for “palm”, “2.5%” for “1.5%”, “water (82° C. (180° F.))” for “water”, “broth.” for “broth. The following three samples were tasted and compared. [table]”"}, "bench-top tasting panel [3]": {"tested_on": "bench-top tasting panel", "experiment": "Umami evaluation in retorted chicken broth (Example 17)", "conditions": "Example 1 0.0002% by weight", "procedure": "Umami evaluations were done in dry noodle seasoning, chicken broth, retorted chicken broth, cheese sauce and salted potato chip applications. Each application was prepared using MSG, the experimental umami tastant and a blank which contained neither MSG nor the experimental umami tastant. Next, using a bench-top tasting panel (consisting of 7 to 14 panelists), panelists were asked to record the sensory attribute differences between the control (blank), the MSG application and the application containing the experimental umami tastant. These sensory attributes include umami, saltiness, bitterness, off-notes, mouth feel attribute, lingering attribute and flavor profile differences. The chicken broth generated in Example 16 was transferred to a can and sealed. Prior to sealing one batch was treated with the compound of Example 1 (0.0002% by weight) and the other batch was canned without the ingredient generating a blank control sample. After sealing the cans, they were heated to 121° C. (250° F.) (under pressure) for 25 minutes, cooled to room temperature and then stored in the refrigerator for two weeks. Prior to tasting, the cans were opened and reheated to 65.5° C. (150° F.)."}, "bench-top tasting panel [4]": {"tested_on": "bench-top tasting panel", "experiment": "Umami evaluation in cheese sauce", "conditions": "Example 1 0.00025% by weight; for umami strength ranking: MSG 0.1%, 14 panelists", "procedure": "as §1, with “differences. […] Annatto” for “differences. [table] Turmeric”, “on a mixture of salt, citric acid” for “on salt”, “and lactic acid” for “and palm fat”, “blended.” for “blended. A concentration of 1.5% of the resulting mixture in hot water generated the noodle seasoning broth. The following three samples were tasted and compared. [table]”"}, "bench-top tasting panel [5]": {"tested_on": "bench-top tasting panel", "experiment": "Umami evaluation on salted potato chips (Example 19)", "conditions": "1% salted potato chips; for umami strength ranking: 14 panelists", "procedure": "as §1, with “differences.” for “differences. [table] Turmeric was plated on salt and palm fat and blended well. Next, the remaining ingredients were added and mixed until well blended. A concentration of 1.5% of the resulting mixture in hot water generated the noodle seasoning broth. The following three samples were tasted and compared. [table]”\nOne percent salt was added to a standard unsalted potato chip."}, "bench-top tasting panel [6]": {"tested_on": "bench-top tasting panel", "experiment": "Umami evaluation in retorted chicken broth (Example 20)", "conditions": "MSG 0.20%, Example 3 4 ppm, Example 13 3 ppm, Example 10 4 ppm, Example 9 3 ppm, 9 panelists", "procedure": "as §1, with “differences.” for “differences. [table] Turmeric was plated on salt and palm fat and blended well. Next, the remaining ingredients were added and mixed until well blended. A concentration of 1.5% of the resulting mixture in hot water generated the noodle seasoning broth. The following three samples were tasted and compared. [table]”\nThe procedure for the preparation of the retorted chicken broth is the same as in example 16. Compounds from Examples 3, 9, 10 and 13 were spiked individually into the chicken broth generating six samples, as described below."}, "bench-top tasting panel [7]": {"tested_on": "bench-top tasting panel", "experiment": "Bain marie (hot water bath) test with chicken broth", "conditions": "hot water bath 150° F. for 4 hours, MSG 0.20%, Example 3 3 ppm, Example 13 2 ppm (table), Example 10 3 ppm, Example 9 2 ppm, 7 panelists", "procedure": "as §1, with “differences.” for “differences. [table] Turmeric was plated on salt and palm fat and blended well. Next, the remaining ingredients were added and mixed until well blended. A concentration of 1.5% of the resulting mixture in hot water generated the noodle seasoning broth. The following three samples were tasted and compared. [table]”\nChicken broth was prepared as previously described in example 15. Compounds from Examples 3, 9, 10 and 13 were added to the chicken broth in the concentrations described below and placed in a hot water bath (150° F.) for 4 hours prior to taste evaluation."}, "bench-top tasting panel [8]": {"tested_on": "bench-top tasting panel", "experiment": "Umami evaluation on salted potato chips (Example 22)", "conditions": "1% salted potato chips; MSG 0.2%, Example 3 10 ppm, Example 13 10 ppm, Example 10 6 ppm, Example 9 10 ppm; 9 panelists", "procedure": "as §1, with “differences.” for “differences. [table] Turmeric was plated on salt and palm fat and blended well. Next, the remaining ingredients were added and mixed until well blended. A concentration of 1.5% of the resulting mixture in hot water generated the noodle seasoning broth. The following three samples were tasted and compared. [table]”\nThe potato chips were prepared as previously described in example 19 and spiked with compounds from Examples 3, 9, 10 and 13 as described below."}, "[9]": {"conditions": "MSG 0.2%, Example 1 3 ppm (0.0003% by weight)"}}}
{"smiles": "c1ccc(SCCc2ccccn2)cc1", "note": "[Example 1, 2-(2-(PHENYLTHIO)ETHYL)PYRIDINE]", "values": [{"measurement": "aroma", "setting": "panel of trained tasters; 1 ppm in water", "result": "green"}, {"measurement": "taste", "setting": "panel of trained tasters; 1 ppm in water", "result": "weak to moderate umami"}, {"measurement": "aroma", "setting": "panel of trained tasters; 10 ppm in water", "result": "green"}, {"measurement": "taste", "setting": "panel of trained tasters; 10 ppm in water", "result": "moderate umami, very weak: bitter, very weak"}, {"measurement": "aroma", "setting": "panel of trained tasters; 20 ppm in water", "result": "Green, tomato, bell"}, {"measurement": "taste", "setting": "panel of trained tasters; 20 ppm in water", "result": "strong umami, very weak bitter, weak metallic"}, {"measurement": "attribute noted by some panelists", "setting": "bench-top tasting panel [1]", "result": "green pepper attribute"}, {"measurement": "Number of panelists who noted green pepper offnote", "setting": "bench-top tasting panel [1]; of 11 panelists", "result": 2}, {"measurement": "umami strength ranking", "setting": "bench-top tasting panel [1]", "result": "MSG>Example 1>Blank Noodle Seasoning"}, {"measurement": "attribute noted by some panelists", "setting": "bench-top tasting panel [2]", "result": "green pepper/chili off-note attribute"}, {"measurement": "Number of panelists who noted green pepper offnote", "setting": "bench-top tasting panel [2]; of 11 panelists", "result": 3}, {"measurement": "umami strength ranking", "setting": "bench-top tasting panel [2]", "result": "MSG>Example 1>Blank Chicken Broth"}, {"measurement": "umami versus control", "setting": "bench-top tasting panel [3]; retorted chicken broth (121° C., 25 minutes, stored two weeks), 10 panelists", "result": "more umami than the control"}, {"measurement": "off-notes", "setting": "bench-top tasting panel [3]; retorted chicken broth", "result": "pepper off-notes"}, {"measurement": "Number of panelists who noted green pepper offnote", "setting": "bench-top tasting panel [3]; retorted chicken broth, of 10 panelists", "result": 4}, {"measurement": "attribute noted by some panelists", "setting": "bench-top tasting panel [4]", "result": "green pepper attribute"}, {"measurement": "Number of panelists who noted green pepper offnote", "setting": "bench-top tasting panel [4]; of 14 panelists", "result": 4}, {"measurement": "umami strength ranking", "setting": "bench-top tasting panel [4]", "result": "MSG>Example 1>Blank Cheese Sauce"}, {"measurement": "umami strength ranking", "setting": "bench-top tasting panel [5]; Example 1 1 ppm (0.0001% by weight)", "result": "MSG>3 ppm Example 1>1 ppm Example 1>Blank Salted Chips"}, {"measurement": "attribute noted by some panelists", "setting": "bench-top tasting panel [5]; Example 1 containing samples (1 ppm and 3 ppm)", "result": "peppery attribute"}, {"measurement": "Number of panelists who noted green pepper offnote", "setting": "bench-top tasting panel [5]; Example 1 samples, of 14 panelists", "result": 2}, {"measurement": "umami strength ranking", "setting": "bench-top tasting panel [5]; [9]", "result": "MSG>3 ppm Example 1>1 ppm Example 1>Blank Salted Chips"}]}
{"smiles": "N[C@@H](CCC(=O)O)C(=O)[O-].[Na+]", "note": "[MSG, monosodium glutamate, reference compound]", "values": [{"measurement": "umami strength ranking", "setting": "bench-top tasting panel [1]", "result": "MSG>Example 1>Blank Noodle Seasoning"}, {"measurement": "umami strength ranking", "setting": "bench-top tasting panel [2]", "result": "MSG>Example 1>Blank Chicken Broth"}, {"measurement": "umami strength ranking", "setting": "bench-top tasting panel [4]", "result": "MSG>Example 1>Blank Cheese Sauce"}, {"measurement": "umami strength ranking", "setting": "bench-top tasting panel [5]; [9]", "result": "MSG>3 ppm Example 1>1 ppm Example 1>Blank Salted Chips"}, {"measurement": "umami strength ranking", "setting": "bench-top tasting panel [6]", "result": "MSG>3 ppm example 9>3 ppm Example 13>4 ppm Example 3>Blank retorted chicken broth>4 ppm Example 10"}, {"measurement": "umami strength ranking", "setting": "bench-top tasting panel [7]", "result": "MSG>2 ppm example 9>3 ppm Example 10=4 ppm Example 13>Blank chicken broth>3 ppm Example 3"}, {"measurement": "umami strength ranking", "setting": "bench-top tasting panel [8]", "result": "10 ppm Example 3>10 ppm Example 9>MSG>10 ppm Example 13>blank>6 ppm Example 10"}]}
